From patent US8946436B2, “Oxazolidinone compounds and their uses in preparation of antibiotics” (Sichuan Gooddoctor Pharmaceutical Group Co., Ltd., priority 2011, dated 2015)
Converted amounts (≈) assume the structure as drawn.

How the values were obtained:
[1] = test system: gram-positive bacteria; test: MIC against 120 strains of clinically isolated gram-positive bacteria; type: cell-based; conditions: 120 clinically isolated gram-positive strains
Text: In order to further study the antibacterial spectrum of Compound 13f, we tested in vitro inhibitory activity of compound 13f on 120 strains of gram-positive bacteria established by clinical isolation, and the MIC values were shown in Table 3.
(§1) Clinically isolated strains: There are total 120 clinical strains of gram-positive bacterium including: 37 strains of Staphylococcus aureus (consisting of 14 strains of methicillin sensitive Staphylococcus aureus MSSA and 23 strains of methicillin resistant Staphylococcus aureus MRSA); 27 strains of Streptococcus pneumoniae (consisting of 13 strains of penicillin sensitive Streptococcus pneumoniae PSSP and 14 strains of penicillin insensitive or resistant Streptococcus pneumoniae PISP+PRSP); 15 strains of Streptococcus pyogenes; 17 strains of Streptococcus agalactiae; 24 stains of Enterococcus faecium (consisting of 12 strains of vancomycin sensitive Enterococcus faecium and 12 strains of vancomycin resistant Enterococcus faecium).
(§2) The minimal inhibitory concentration (MIC) of the test compounds on the strains of Streptococcus pneumoniae was determined by a standard broth macrodilution method, while the MIC of the test compounds on the other bacteria stains was determined by standard agar double dilution methods. […] The MIC of the test compound to each strain of the bacteria was determined.

[2] = test system: VSE; test: Minimum bactericidal concentration (MBC) test, VSE; type: cell-based, vancomycin sensitive Enterococcus faecium
Method: (§3) Staphylococcus and Enterococcus faecium were incubated in Mueller-Hinton agar medium (MHA medium) at 35° C. for 16-20 h; S. pneumoniae was incubated in Cation-Adjusted Mueller-Hinton Broth medium (CAMHB medium) supplemented with 2.5-5.5% (v/v) lysed horse blood (LHB) at 35° C. for 20-24 h; and Streptococcus were incubated in sheep blood-containing medium (prepared by addition of 5% defibrinated sheep blood into MHA media) at 35° C. for 20-24 h in 5% CO2 environment (CO2 incubator). Before test of the compound activity, each stock of the bacteria strains was activated and colonized in the following manner: the stock was transferred and cultured in a liquid culture medium, the culture liquid was smeared onto an agar plate with an inoculating loop to obtain bacterial colonies on the plate after incubation, and then a colony of the bacteria was chose to be suspended into the liquid culture medium for performing the test of compound activity. As a result, fresh bacteria cells were applied to the test. The standard strains were used as sensitive bacterium to control the quality of the experiments, and a plate or tube containing no antibacterial compounds is used as a blank control for the growth of test strains.
(§4) The minimal inhibitory concentration (MIC) of the test compounds on the strains of Streptococcus pneumoniae was determined by a standard broth macrodilution method, while the MIC of the test compounds on the other bacteria stains was determined by standard agar double dilution methods. The concentration of the test compounds was in the range of 32 mg/L-0.016 mg/L. The bacterial suspensions to be tested were inoculated by a multipoint inoculator, and the inoculation amount at each point is 10^4 CFU. The MIC of the test compound to each strain of the bacteria was determined.
(§5) The MBC was determined by a tube double dilution method. Solutions of the test compounds was prepared and serially diluted. Each of the solutions was mixed with a bacterium suspension (10^6 CFU/mL), and then was incubated at 35° C. overnight. 0.1 mL of the culture supernatant of each tubes was inoculated on a plate containing no antibiotics, and then incubated at 35° C. for 18 h.

[3] = test system: PSSP; test: MIC against clinically isolated strains, PSSP; type: cell-based, penicillin sensitive Streptococcus pneumoniae; parameters: MICmode / MICrange: unit not given here
Text: (§6) Standard strains, including Staphylococcus aureus ATCC29213, S. pneumoniae ATCC49619, E. faecalis ATCC29212, are all available from the American Type Culture Collection.
as §1
(§7) (2) Tested compounds: Compound 13f was prepared by the methods above, with potency of over 98%; Linezolid was purchased from Pfizer, with potency of 100%.
as §3, §2

[4] = test system: gram-positive bacteria; test: MBC test, 10 strains of clinically isolated gram-positive bacteria; type: cell-based
Method: In order to investigate whether the antibacterial activity of Compound 13f is bacteriostatic or bactericidal to gram-positive bacteria, we tested its MBC on 10 strains of gram-positive bacteria (established by clinical isolation), results as shown in Table 4.
as §5

[5] = test system: PNSSP; test: Minimum bactericidal concentration (MBC) test, PNSSP; type: cell-based, Streptococcus pneumoniae; conditions: strain 09J699, PNSSP
Method: as §3, §4
(§8) The MBC was determined by a tube double dilution method. Solutions of the test compounds was prepared and serially diluted. Each of the solutions was mixed with a bacterium suspension (10^6 CFU/mL), and then was incubated at 35° C. overnight. […]

[6] = test system: MSSA; test: MIC against clinically isolated strains, MSSA; type: cell-based, methicillin sensitive Staphylococcus aureus; parameters: MICmode / MICrange: unit not given here; conditions: MSSA (14 strains)
Text: as §6, §1, §7, §3, §2

[7] = test system: MSSA; test: Minimum bactericidal concentration (MBC) test, MSSA; type: cell-based, methicillin sensitive Staphylococcus aureus; conditions: for MIC: MSSA
Method: as §3, §4, §5

[8] = test system: PNSP; test: MIC against clinically isolated strains, PNSP; type: cell-based, penicillin insensitive or resistant Streptococcus pneumoniae; parameters: MICmode / MICrange: unit not given here; conditions: PNSP (14 grains)
Text: as §6, §1, §7, §3, §2

[9] = test system: MRSA; test: MIC against clinically isolated strains, MRSA; type: cell-based, methicillin resistant Staphylococcus aureus; parameters: MICmode / MICrange: unit not given here; conditions: MRSA (23 strains)
Text: as §6, §1, §7, §3, §2

[10] = test system: PSSP; test: Minimum bactericidal concentration (MBC) test, PSSP; type: cell-based, penicillin sensitive Streptococcus pneumoniae; conditions: strain 09G343, PSSP
Method: as §3, §4, §8

[11] = test system: MRSA; test: Minimum bactericidal concentration (MBC) test, MRSA; type: cell-based, methicillin resistant Staphylococcus aureus
Method: as §3, §4, §8

[12] = test system: VRE; test: Minimum bactericidal concentration (MBC) test, VRE; type: cell-based, vancomycin resistant Enterococcus faecium
Method: as §3, §4, §5

[13] = Enterococcus faecium, strain 09D263, VSE
[14] = Streptococcus pneumoniae, PSSP (13 strains)
[15] = Staphylococcus aureus, strain 09U035, MSSA
[16] = Enterococcus, strain 09ZB145, VRE

CC(=O)NC[C@H]1CN(c2ccc(-n3cc(-c4ccccn4)cn3)c(F)c2)C(=O)O1 [Compound 13f, (S)-N-((3-(3-fluoro-4-(4-(pyridin-2-yl)-1H-pyrazol-1-yl)phenyl)-2-oxooxazolidin-5-yl)methyl)acetamide]
antibacterial activity on test strains compared with Linezolid [1]: almost the same with that of Linezolid | MBC [2, 13]: 8 ng/mL (≈ 20.2 nM) | MIC [2, 13]: 4 ng/mL (≈ 10.1 nM) | MBC/MIC ([2]; strain 09D263, VSE): 2 | MBC value ([2]; strain 09H202, VSE): 8 ng/mL (≈ 20.2 nM) | MBC/MIC ([2]; strain 09H202, VSE): 2 | MIC value ([2]; strain 09H202, VSE): 4 ng/mL (≈ 10.1 nM) | MICrange ([3]; PSSP (13 grains)): 0.5-1 | MICmode ([3]; PSSP (13 strains)): 1 | MIC50 [3, 14]: 1 ng/mL (≈ 2.53 nM) | MIC90 [3, 14]: 1 ng/mL (≈ 2.53 nM) | MBC/MIC ratio ([4]; 3 of 4 tested strains of E. faecalis): 4 | ratio of MBC/MIC ([4]; Staphylococcus sp. and Streptococcus pneumoniae): 1-2 | ratio of MBC/MIC ([4]; all the 10 tested strains): ≤ 4 | bacteriostatic or bactericidal ([4]; all the 10 tested strains, MBC/MIC ≦4): bactericidal effect | MBC ([5]; Streptococcus pneumoniae): 2 ng/mL (≈ 5.06 nM) | MIC ([5]; Streptococcus pneumoniae): 1 ng/mL (≈ 2.53 nM) | MBC/MIC [5]: 2 | MICmode [6]: 1 | MICrange [6]: 0.5-1 | MIC50 ([6]; Staphylococcus aureus): 1 ng/mL (≈ 2.53 nM) | MIC90 ([6]; Staphylococcus aureus): 1 ng/mL (≈ 2.53 nM) | MIC ([7]; Staphylococcus aureus, strain 09O077, MSSA): 1 ng/mL (≈ 2.53 nM) | MIC [7, 15]: 2 ng/mL (≈ 5.06 nM) | MBC [7, 15]: 2 ng/mL (≈ 5.06 nM) | MBC value ([7]; strain 09O077, MSSA): 2 ng/mL (≈ 5.06 nM) | MBC/MIC ([7]; strain 09O077, MSSA): 2 | MBC/MIC ([7]; strain 09U035, MSSA): 1 | MICmode [8]: 0.5 | MICrange [8]: 0.5-1 | MIC50 ([8]; Streptococcus pneumoniae): 0.5 ng/mL (≈ 1.26 nM) | MIC90 ([8]; Streptococcus pneumoniae): 1 ng/mL (≈ 2.53 nM) | MICmode [9]: 1 | MICrange [9]: 0.5-1 | MIC50 ([9]; Staphylococcus aureus): 1 ng/mL (≈ 2.53 nM) | MIC90 ([9]; Staphylococcus aureus): 1 ng/mL (≈ 2.53 nM) | MBC ([10]; Streptococcus pneumoniae): 1 ng/mL (≈ 2.53 nM) | MIC ([10]; Streptococcus pneumoniae): 0.5 ng/mL (≈ 1.26 nM) | MBC/MIC [10]: 2 | MBC/MIC ([11]; strain 09L075, MRSA): 2 | MIC value ([11]; strain 09L075, MRSA): 2 ng/mL (≈ 5.06 nM) | MBC/MIC ([11]; strain 09N120, MRSA): 1 | MBC [12, 16]: 8 ng/mL (≈ 20.2 nM) | MIC [12, 16]: 4 ng/mL (≈ 10.1 nM) | MBC value ([12]; strain 09ZB137, VRE): 8 ng/mL (≈ 20.2 nM) | MBC/MIC ([12]; strain 09ZB137, VRE): 2 | MIC value ([12]; strain 09ZB137, VRE): 4 ng/mL (≈ 10.1 nM) | MBC/MIC ([12]; strain 09ZB145, VRE): 2
